Measurements published in patent US7488736B2, “Thienopyridinone compounds and methods of treatment” (Epix Delaware, Inc., priority 2004, dated 2009).
Where a name gives a salt, the structure may show the parent alone. Each block holds one molecule with its values, some of them ahead of it.

What was measured:
h 5-HT4e Receptor = h 5-HT4e Receptor (Homo sapiens, UniProt Q13639); assay: h 5-HT4e receptor binding affinity assay
rats [1] = assay: Reversal of the scopolamine-induced deficit of Morris water maze performance; format: in vivo, rat
Source text: Reversal of the Scopolamine-Induced Deficit of Water Maze Performance in Rats
The Morris Water Maze test is commonly used to study hippocampal-dependent spatial memory acquisition. It consists of a water pool with a hidden escape platform where the rats must learn the location of the platform using either contextual or local cues. […] Lesions of the hippocampus or its cholinergic input impair performance (e.g., by scopolamine) by inducing a performance deficit (latency or time to reach the platform location) in this test without affecting the speed of swimming or other general behaviors in the test animals.

rats [2] = assay: Spontaneous alternation task (cross maze), spatial working memory; format: in vivo, rat; design: number of arm entries: unit not given here; settings: 5 mg/kg i.p., 12 minutes on cross maze
Source text: Effect of Compound 23 on Spatial Working Memory in the Spontaneous Alternation Task Performance in Rats
Rats have an innate tendency to explore their environment in a systematic way. That is, if a rat chose a certain arm on the first trial in a maze, there is high probability that it will choose a different arm on the second trial. […] The performance in the spontaneous alternation test is highly dependent on spatial working memory capacity and rats with compromised “working memory” cannot retain information regarding places just visited in memory; therefore they show decreased spontaneous alternation. In this study, rats were tested for spontaneous alternation performance on the cross maze. Rats were allowed to explore the maze freely for 12 minutes. An alternation was recorded if a rat entered all four arms within a series of four consecutive entries. Chance performance is 22.5% with this measure.

[3] = scopolamine 1 mg/kg i.p., compound at both 15 mg/kg and 30 mg/kg p.o.

Chain of h 5-HT4e Receptor (Q13639 1-378 isoform Q13639-5): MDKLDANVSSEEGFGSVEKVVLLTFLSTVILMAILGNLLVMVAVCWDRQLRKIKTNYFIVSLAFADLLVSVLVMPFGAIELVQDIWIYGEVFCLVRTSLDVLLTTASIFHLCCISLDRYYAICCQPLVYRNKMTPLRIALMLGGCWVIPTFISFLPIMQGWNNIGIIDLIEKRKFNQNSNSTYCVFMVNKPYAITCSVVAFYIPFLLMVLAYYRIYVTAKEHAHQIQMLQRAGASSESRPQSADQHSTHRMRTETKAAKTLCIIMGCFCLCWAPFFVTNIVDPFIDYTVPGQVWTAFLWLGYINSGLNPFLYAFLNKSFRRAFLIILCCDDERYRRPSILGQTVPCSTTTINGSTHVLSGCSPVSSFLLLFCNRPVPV

- Ki (h 5-HT4e Receptor): 50 nM
SMILES: CC(C)n1c(=O)c(C(=O)NCCCN2CCC(C(F)(F)F)CC2)c(O)c2ccsc21 [Compound 9, 6,7-Dihydro-4-hydroxy-7-isopropyl-6-oxo-N-(3-(4-(trifluoromethyl)piperidin-1-yl)propyl)thieno[2,3-b]pyridine-5-carboxamide hydrochloride salt]

- Ki (h 5-HT4e Receptor): 40 nM
SMILES: COC(=O)C1CCN(CCCNC(=O)c2c(O)c3ccsc3n(C(C)C)c2=O)CC1 [Compound 10, 6,7-Dihydro-4-hydroxy-7-isopropyl-6-oxo-N-(3-(4-(methoxycarbonyl)piperidin-1-yl)propyl)thieno[2,3-b]pyridine-5-carboxamide hydrochloride salt]

- Ki (h 5-HT4e Receptor): 220 nM
SMILES: CC(C)n1c(=O)c(C(=O)NCCCN2CCC(F)(F)CC2)c(O)c2ccsc21 [Compound 11, N-(3-(4,4-Difluoropiperidin-1-yl)propyl)-6,7-dihydro-4-hydroxy-7-isopropyl-6-oxothieno[2,3-b]pyridine-5-carboxamide hydrochloride salt]

- Ki (h 5-HT4e Receptor): 200 nM
SMILES: CC(C)n1c(=O)c(C(=O)NCCCN2CCC(C)(C)CC2)c(O)c2ccsc21 [Compound 12, 6,7-Dihydro-N-(3-(4,4-dimethylpiperidin-1-yl)propyl)-4-hydroxy-7-isopropyl-6-oxothieno[2,3-b]pyridine-5-carboxamide hydrochloride salt]

- Ki (h 5-HT4e Receptor): 380 nM
SMILES: CC(C)n1c(=O)c(C(=O)NCCCN2[C@H](C)CCC[C@@H]2C)c(O)c2ccsc21 [Compound 13, 6,7-Dihydro-N-(3-((2R,6S)-2,6-dimethylpiperidin-1-yl)propyl)-4-hydroxy-7-isopropyl-6-oxothieno[2,3-b]pyridine-5-carboxamide hydrochloride salt]

- Ki (h 5-HT4e Receptor): 140 nM
SMILES: Cc1sc2c(c1C)c(O)c(C(=O)NCCCN1CCCCC1)c(=O)n2C(C)C [Compound 14, 6,7-Dihydro-2,3-dimethyl-4-hydroxy-7-isopropyl-6-oxo-N-(3-(piperidin-1-yl)propyl)thieno-[2,3-b]pyridine-5-carboxamide hydrochloride salt]

- Ki (h 5-HT4e Receptor): 31 nM
SMILES: COc1c(C(=O)NCCCN2CCCCC2)c(=O)n(C(C)C)c2sccc12 [Compound 16, 6,7-Dihydro-7-isopropyl-4-methoxy-6-oxo-N-(3-(piperidin-1-yl)propyl)thieno[2,3-b]pyridine-5-carboxamide]

More lines, now with the values behind:

SMILES: CC(C)Cn1c(=O)c(C(=O)NCCCN2CCCCC2)c(O)c2ccsc21 [Compound 1, 6,7-Dihydro-4-hydroxy-7-isobutyl-6-oxo-N-(3-(piperidin-1-yl)propyl)thieno[2,3-b]pyridine-5-carboxamide hydrochloride salt]
- Ki (h 5-HT4e Receptor): 120 nM

SMILES: CCCn1c(=O)c(C(=O)NCCCN2CCC(C)CC2)c(O)c2ccsc21 [Compound 2, 6,7-Dihydro-4-hydroxy-N-(3-(4-methylpiperidin-1-yl)propyl)-6-oxo-7-propylthieno[2,3-b]pyridine-5-carboxamide hydrochloride salt]
- Ki (h 5-HT4e Receptor): 160 nM

SMILES: CCn1c(=O)c(C(=O)NCCCN2CCCCC2)c(O)c2ccsc21 [Compound 3, 6,7-Dihydro-7-ethyl-4-hydroxy-6-oxo-N-(3-(piperidin-1-yl)propyl)thieno[2,3-b]pyridine-5-carboxamide hydrochloride salt]
- Ki (h 5-HT4e Receptor): 36 nM

SMILES: CCn1c(=O)c(C(=O)NCCCN2CCC(C)CC2)c(O)c2ccsc21 [Compound 4, 6,7-Dihydro-7-ethyl-4-hydroxy-N-(3-(4-methylpiperidin-1-yl)propyl)-6-oxothieno[2,3-b]pyridine-5-carboxamide hydrochloride salt]
- Ki (h 5-HT4e Receptor): 20 nM

SMILES: CCC1CCN(CCCNC(=O)c2c(O)c3ccsc3n(CC)c2=O)CC1 [Compound 5, 6,7-Dihydro-7-ethyl-N-(3-(4-ethylpiperidin-1-yl)propyl)-4-hydroxy-6-oxothieno[2,3-b]pyridine-5-carboxamide hydrochloride salt]
- Ki (h 5-HT4e Receptor): 26 nM

SMILES: CC(C)n1c(=O)c(C(=O)NCCCN2CCCC2)c(O)c2ccsc21 [Compound 6, 6,7-Dihydro-4-hydroxy-7-isopropyl-6-oxo-N-(3-(pyrrolidin-1-yl)propyl)thieno-[2,3-b]pyridine-5-carboxamide hydrochloride salt]
- Ki (h 5-HT4e Receptor): 35 nM

SMILES: CC1CCN(CCCNC(=O)c2c(O)c3ccsc3n(C(C)C)c2=O)CC1 [Compound 8, 6,7-Dihydro-4-hydroxy-7-isopropyl-N-(3-(4-methylpiperidin-1-yl)propyl)-6-oxothieno[2,3-b]pyridine-5-carboxamide hydrochloride salt]
- Ki (h 5-HT4e Receptor): 65 nM

SMILES: CC(C)n1c(=O)c(C(=O)NCCCN2CCCCC2)c([O-])c2ccsc21.[K+] [Compound 23, 6,7-Dihydro-4-hydroxy-7-isopropyl-6-oxo-N-(3-(piperidin-1-yl)propyl)thieno[2,3-b]pyridine-5-carboxamide potassium salt]
- decrease in path length to reach the platform (rats [1]; [3]): 35-55%
- decrease in time to reach the platform (rats [1]; [3]): 25-30%
- number of arm entries (rats [2]): 30
- mean alternation score (rats [2]; chance performance 22.5%): 58%±3%

SMILES: CN1[C@@H]2C[C@@H](OC(=O)[C@H](CO)c3ccccc3)C[C@H]1[C@@H]1O[C@@H]12 [scopolamine, reference compound]
- increase in latency and path length to find the platform compared with vehicle treated rats (rats [1]; scopolamine pretreatment 1 mg/kg i.p.): ~5 fold
